In ChEMBL document CHEMBL1155505, “Penicinoline, a new pyrrolyl 4-quinolinone alkaloid with an unprecedented ring system from an endophytic fungus Penicillium sp” (Bioorg Med Chem Lett, 2010):
≈ marks a conversion by molar mass, not a printed value.

Key:
[1] = test system: Uromyces viciae-fabae; experiment: […] activity against Uromyces fabae; format: functional
[2] = test system: Aphis gossypii; experiment: Insecticidal activity against Aphis gossypii; format: functional
[3] = test system: HEp-2; experiment: Cytotoxicity against human Hep2 cells; format: functional, cell-based
[4] = Cytotoxicity against human 95-D cells; format: functional, cell-based
[5] = test system: Plutella xylostella; experiment: Insecticidal activity against Plutella xylostella; format: functional
[6] = test system: HepG2; experiment: Cytotoxicity against human HepG2 cells; format: functional, cell-based
[7] = test system: HeLa; experiment: Cytotoxicity against human HeLa cells; format: functional, cell-based
[8] = Cytotoxicity against human KBv200 cells; format: functional, cell-based
[9] = test system: KB; experiment: Cytotoxicity against human KB cells; format: functional, cell-based
[10] = test system: Zymoseptoria tritici; experiment: […] activity against Septoria tritici; format: functional
[11] = test system: Heliothis virescens; experiment: Insecticidal activity against Heliothis virescens; format: functional

Structure (SMILES): O=C(O)c1c(-c2ccc[nH]2)[nH]c2ccccc2c1=O [PENICINOLINE]
- min. effective conc. [1]: > 1000 ppm
- min. effective conc. [2]: 1000 ppm
- IC50 [3]: > 100 µg/mL
- IC50 [4]: 0.57 µg/mL (≈ 2.24 µM)
- min. effective conc. [5]: > 1000 ppm
- IC50 [6]: 6.5 µg/mL (≈ 25.6 µM)
- IC50 [7]: > 100 µg/mL
- IC50 [8]: > 100 µg/mL
- IC50 [9]: > 100 µg/mL
- min. effective conc. [10]: > 1000 ppm
- min. effective conc. [11]: > 1000 ppm

Structure (SMILES): Cn1c2c(c(=O)c3ccccc31)C(=O)n1cccc1-2 [PENICINOTAM]
- min. effective conc. [1]: > 1000 ppm
- min. effective conc. [2]: 1000 ppm
- min. effective conc. [5]: 500 ppm
- min. effective conc. [10]: > 1000 ppm
- min. effective conc. [11]: > 1000 ppm
